Results on 17 molecules are retold here after patent US9994525B2, “H3 antagonists containing phenoxypiperidine core structure” (RICHTER GEDEON NYRT., priority 2013, dated 2018).

pKi: −log10 of the molar value. Structures can show the parent of a compound that is named as a salt.

The target in data set [1] is rat histamine H3 receptors (Rattus norvegicus (Rat), UniProt Q9QYN8). The data set can be described thus: rat histamine H3 receptor in vitro binding assay, N-α-[Methyl-3H]methylhistamine radioligand, rat cortex membrane. The conditions noted are these: 1 nM radioligand, read-out: rH3 Ki. As for the experimental part:
The in vitro affinity of the compounds of the present invention for rat histamine H3 receptors can be determined according to the following procedure.
The rat histamine H3 receptor membrane was prepared as previously described by Witte et al. (British Journal of Pharmacol. 1-14, 2006). Male Sprague-Dawley rats were decapitated, their brains were removed and the cortex was isolated. The obtained tissues were homogenized in Tris-EDTA buffer (50 mM Tris-HCl, pH 7.4, 5 mM EDTA, 2 aprotinin, 1 mM benzamidine, 2 μg/ml leupeptin, 1 pepstatin) by a blender homogenizer (Ultra-Turrax). The homogenate was centrifuged at 40000 g for 20 min at 4° C. The membrane pellets were further purified by repeating the above homogenization and centrifugation steps. Final membrane preparations were obtained by rehomogenizing the pellets in 1:10 ratio in Tris-EDTA buffer (50 mM Tris-HCl, pH 7.4, 5 mM EDTA). The so obtained membrane preparation was divided into aliquots, flash frozen and stored at −80° C. until use. Protein content was determined by Lowry method using bovine serum albumin (BSA) as standard.
Receptor binding assays were performed in at least 5 concentrations, with two parallel samples in each concentrations, in at least two independent experiments using the binding buffer (50 mM Tris-HCl, pH 7.4, 5 mM MgCl2), rat H3 membrane (140 μg protein/tube), and N-α-[Methyl-^3H]methylhistamine dihydrochloride (1 nM) as radioligand. Non-specific binding was determined in the presence of 10 μM thioperamide. The samples were incubated in a final volume of 0.50 ml for 30 min at 25° C. Binding reactions were terminated by rapid filtration through UniFilter® GF/B™ fiber glass filters presoaked for at least 2 h in 0.5% polyethylene imine (PEI). The filterplates were washed nine times with 0.5 ml of ice-cold washing buffer (50 mM Tris-HCl, pH 7.4, 5 mM MgCl2, 10 μg/ml saponine). The filterplates were dried at 50° C. for 45 min and 40 μl of Microscint20 (Packard) scintillation cocktail was added to each well. Filters radioactivity was determined by TopCount (Packard) scintillation counter.
The ligand displacement by the compounds of the present invention was determined in at least two parallel experiments. The specific radioligand binding was defined as the difference between the total binding and the non-specific binding determined in the presence of excess of unlabelled ligand or test compounds used to specifically displace the radioligand. Results were expressed as a percent inhibition of specific binding obtained in the presence of test compounds. IC50 values were calculated from concentration-displacement curves by sigmoidal fitting using GraphPad Prism Software 4.0. Inhibition constants (Ki values) were calculated using the Cheng-Prusoff equation (Cheng Y C and Prusoff W H (1973) Biochem Pharmacol 22:3099-3108).
The affinity at rat H3 receptors of compounds of the present invention is illustrated by the following table.

The target of a further data set is hERG potassium channel (Homo sapiens (Human), UniProt Q12809). The conditions noted are these: cited from earlier work.
Chain of hERG potassium channel (Q12809 whole entry): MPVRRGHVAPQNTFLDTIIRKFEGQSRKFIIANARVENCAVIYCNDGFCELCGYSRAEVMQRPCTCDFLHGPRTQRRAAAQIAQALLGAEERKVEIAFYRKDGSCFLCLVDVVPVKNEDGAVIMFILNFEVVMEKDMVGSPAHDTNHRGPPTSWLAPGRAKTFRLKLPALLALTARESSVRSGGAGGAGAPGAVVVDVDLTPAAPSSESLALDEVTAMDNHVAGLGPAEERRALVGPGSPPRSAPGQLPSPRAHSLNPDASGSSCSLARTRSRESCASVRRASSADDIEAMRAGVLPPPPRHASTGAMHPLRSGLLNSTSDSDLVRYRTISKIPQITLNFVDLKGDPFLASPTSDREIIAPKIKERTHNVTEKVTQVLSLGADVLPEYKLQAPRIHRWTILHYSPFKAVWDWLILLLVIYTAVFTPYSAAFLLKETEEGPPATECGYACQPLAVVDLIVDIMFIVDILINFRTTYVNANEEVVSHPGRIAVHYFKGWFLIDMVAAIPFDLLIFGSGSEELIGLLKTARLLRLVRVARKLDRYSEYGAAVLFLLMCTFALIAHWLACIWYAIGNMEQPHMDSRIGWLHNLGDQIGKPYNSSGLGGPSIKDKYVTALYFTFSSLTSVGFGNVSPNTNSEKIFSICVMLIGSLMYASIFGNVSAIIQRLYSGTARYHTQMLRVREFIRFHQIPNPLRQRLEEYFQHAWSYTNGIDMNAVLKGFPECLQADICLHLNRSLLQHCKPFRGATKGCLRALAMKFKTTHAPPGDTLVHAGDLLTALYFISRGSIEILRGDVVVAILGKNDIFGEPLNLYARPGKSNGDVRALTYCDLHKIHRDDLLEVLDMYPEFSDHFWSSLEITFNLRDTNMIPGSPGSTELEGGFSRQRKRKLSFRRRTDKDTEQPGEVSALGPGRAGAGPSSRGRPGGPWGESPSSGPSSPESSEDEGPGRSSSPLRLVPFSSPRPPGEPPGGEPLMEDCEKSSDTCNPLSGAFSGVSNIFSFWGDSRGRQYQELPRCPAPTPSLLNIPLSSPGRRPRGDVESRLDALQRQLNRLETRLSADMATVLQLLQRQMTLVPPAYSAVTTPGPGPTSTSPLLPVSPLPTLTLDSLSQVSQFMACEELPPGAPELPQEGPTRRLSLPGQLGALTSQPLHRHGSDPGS
The conditions of data set [2]: cited from earlier work.
Data set [3] has as its system extracellular histamine (HA) levels. The experiment in a line: cerebral microdialysis, extracellular histamine (HA) levels in prefrontal cortex and hippocampus. The format is in vivo, male Wistar rats. The conditions noted are these: rats. An excerpt: (§1) Prefrontal cortex and hippocampus, the two brain regions play important roles in cognition processes. Both histamine (HA) and acetylcholine (ACh) are transmitters playing important roles in cognition. The hypofunction of the central cholinergic and histaminergic systems is considered one of the pathogenic causes of the cognitive deficits characterizing dementias. Alterations in the extracellular levels of HA and ACh were investigated after single and simultaneous treatment with histamine H3 antagonists and acetylcholine esterase inhibitors (AChEIs) in the prefrontal cortex and hippocampus of conscious, freely moving male Wistar rats (4-6 animals/group) by cerebral microdialysis technique.
(§2) Microdialysis probes were implanted in the medial prefrontal cortex (MPFC) and hippocampus (HC), and perfused with artificial AChEI-free cerebrospinal fluid (aCSF). Compounds examined in the present study were administered in 1% hydroxypropyl-methylcellulose (HPMC) and 5% polyoxiethelen(8)-sorbitane-monooleat (Tween 80) into the stomach via surgically implanted catheter.
(§3) Thirty-min samples were collected and the temporal changes in the extracellular ACh and histamine HA were followed by high-sensitivity and selectivity liquid chromatography coupled with mass spectrometry/mass spectrometry (LC-MS/MS) analytical method. […]

Data set [4] has as its system extracellular acetylcholine (ACh) levels. The experiment in a line: cerebral microdialysis, extracellular acetylcholine (ACh) levels in prefrontal cortex and hippocampus. The conditions noted are these: rats. The format is in vivo, male Wistar rats.
From the text: as §1, §2, §3

For data set [5] the following is noted: rat, in vivo.
Setting [6] is: single treatment, 0.5 and 1 mg/kg into the stomach, MPFC and HC.

Chain of rat histamine H3 receptors (Q9QYN8 whole entry): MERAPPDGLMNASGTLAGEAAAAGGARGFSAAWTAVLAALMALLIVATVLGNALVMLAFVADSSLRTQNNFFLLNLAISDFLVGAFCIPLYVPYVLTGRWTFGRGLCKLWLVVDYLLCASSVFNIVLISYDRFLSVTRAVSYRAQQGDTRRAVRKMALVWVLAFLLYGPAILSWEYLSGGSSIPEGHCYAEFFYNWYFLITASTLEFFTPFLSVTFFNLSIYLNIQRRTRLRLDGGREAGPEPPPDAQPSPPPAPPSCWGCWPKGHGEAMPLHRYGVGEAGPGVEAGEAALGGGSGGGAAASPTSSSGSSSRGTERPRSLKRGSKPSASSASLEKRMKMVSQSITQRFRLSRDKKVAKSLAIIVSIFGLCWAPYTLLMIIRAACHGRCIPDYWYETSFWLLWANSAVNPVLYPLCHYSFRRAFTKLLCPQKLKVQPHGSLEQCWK

Broadly, the pKi is −log10 of the Ki, conventionally taken in molar units. As for `CCNC(=O)N1CCC(Oc2ccc(OCCCN3CCC[C@H]3C)cc2)CC1` [Example 15, N-ethyl-4-(4-{3-[(2R)-2-methyl-pyrrolidin-1-yl]-propoxy}-phenoxy)-piperidine-1-carboxamide], in data set [1], the pKi was greater than 8.00.

On to `C[C@@H]1CCCN1CCc1cc2cc(-c3ccc(C#N)cc3)ccc2o1` [ABT-239], for which the “cardiovascular side-effects, interaction with the hERG potassium channel” value on hERG potassium channel is given as “interaction with the hERG potassium channel”. Besides, the plasma protein binding result in data set [2] is listed as “High”.

Consider `C[C@@H]1CCCN1CCCOc1ccc(OC2CCN(C(=O)OC(C)(C)C)CC2)cc1` [Example 9, 4-(4-{3-[(2R)-2-methyl-pyrrolidin-1-yl]-propoxy}-phenoxy)-piperidine-1-carboxylic acid tert-butyl ester], for which the pKi in data set [1] was 7.30 to 8.00.

`CC(=O)N1CCC(Oc2ccc(OCCCN3CCC[C@H]3C)cc2)CC1` [Example 11, 1-[4-(4-{3-[(2R)-2-methyl-pyrrolidin-1-yl]-propoxy}-phenoxy)-piperidin-1-yl]-ethanone hydrochloride salt]: the pKi in data set [1] was 7.30 to 8.00. For the same molecule, the “HA release evoked by Compound 11” value in data set [3] (simultaneous administration with donepezil) is “not changed”. The “extracellular HA level” value in data set [3] (setting [6]) was “rapid and expressed increase”. Also, the “extracellular ACh” value in data set [4] (simultaneous administration of 0.5 mg/kg donepezil and 0.5 or 1 mg/kg Compound 11, MPFC and HC) is recorded as “supra-additive increase”. Moreover, the ACh levels result in data set [4] (setting [6]) is given as “No significant changes”. Further, the “plasma and brain levels” value in data set [5] was “did not change”.

Take `O=C(C1CCC1)N1CCC(Oc2ccc(OCCCN3CCCCC3)cc2)CC1` [Example 4, Cyclobutyl-(4-{4-[3-(piperidin-1-yl)-propoxy]-phenoxy}-piperidin-1-yl)-methanone hydrochloride salt]: the pKi in data set [1] was 7.30 to 8.00.

Take `CCN(C)C(=O)N1CCC(Oc2ccc(OCCCN3CCCCC3)cc2)CC1` [Example 8, N-ethyl-N-methyl-4-{4-[3-(piperidin-1-yl)-propoxy]-phenoxy}-piperidine-1-carboxamide hydrochloride salt]: the pKi in data set [1] was 7.30 to 8.00.

Turning to `CC(=O)N1CCC(Oc2ccc(OCCCN3CCCCC3)cc2)CC1` [Example 3, 1-(4-{4-[3-(piperidin-1-yl)-propoxy]-phenoxy}-piperidin-1-yl)-ethanone hydrochloride salt], in data set [1], the pKi was greater than 8.00.

With `C[C@@H]1CCCN1CCCOc1ccc(OC2CCN(C(=O)C3(C)CC3)CC2)cc1` [Example 13, (1-methyl-cyclopropyl)-[4-(4-{3-[(2R)-2-methyl-pyrrolidin-1-yl]-propoxy}-phenoxy)-piperidin-1-yl]-methanone hydrochloride salt], in data set [1], the pKi was greater than 8.00.

Regarding `C[C@@H]1CCCN1CCCOc1ccc(OC2CCNCC2)cc1` [Example 10, 4-(4-{3-[(2R)-2-methyl-pyrrolidin-1-yl]-propoxy}-phenoxy)-piperidine dihydrochloride salt], the pKi in data set [1] is greater than 8.00.

In the case of `CCOC(=O)N1CCC(Oc2ccc(OCCCN3CCCCC3)cc2)CC1` [Example 6, Ethyl-4-{4-[3-(piperidin-1-yl)-propoxy]-phenoxy}-piperidine-1-carboxylate hydrochloride salt], the pKi in data set [1] was 7.30 to 8.00.

Consider `CC1(C(=O)N2CCC(Oc3ccc(OCCCN4CCCCC4)cc3)CC2)CC1` [Example 5, (1-methyl-cyclopropyl)-(4-{4-[3-(piperidin-1-yl)-propoxy]-phenoxy}-piperidin-1-yl)-methanon hydrochloride salt], for which, in data set [1], the pKi is greater than 8.00.

As to `CCN(C)C(=O)N1CCC(Oc2ccc(OCCCN3CCC[C@H]3C)cc2)CC1` [Example 16, N-ethyl-N-methyl-4-(4-{3-[(2R)-2-methyl-pyrrolidin-1-yl]-propoxy}-phenoxy)-piperidine-1-carboxamide hydrochloride salt], in data set [1], the pKi was greater than 8.00.

As for `C[C@@H]1CCCN1CCCOc1ccc(OC2CCN(C(=O)C3CCC3)CC2)cc1` [Example 12, cyclobutyl-[4-(4-{3-[(2R)-2-methylpyrrolidin-1-yl]-propoxy}-phenoxy)-piperidin-1-yl]-methanone hydrochloride salt], in data set [1], the pKi is greater than 8.00.

Regarding `CCOC(=O)N1CCC(Oc2ccc(OCCCN3CCC[C@H]3C)cc2)CC1` [Example 14, ethyl-4-(4-{3-[(2R)-2-methyl-pyrrolidin-1-yl]-propoxy}-phenoxy)-piperidine-1-carboxilate hydrochloride salt], the pKi in data set [1] was greater than 8.00.

With `CC(C)(C)OC(=O)N1CCC(Oc2ccc(OCCCN3CCCCC3)cc2)CC1` [Example 1, 4-{4-[3-(piperidin-1-yl)-propoxy]-phenoxy}-piperidine-1-carboxylic acid tert-butyl ester], the pKi in data set [1] was 7.30 to 8.00.

For `CCNC(=O)N1CCC(Oc2ccc(OCCCN3CCCCC3)cc2)CC1` [Example 7, N-ethyl-4-{4-[3-(piperidin-1-yl)-propoxy]-phenoxy}-piperidine-1-carboxamide], the pKi in data set [1] was 7.30 to 8.00.

Turning to `c1cc(OC2CCNCC2)ccc1OCCCN1CCCCC1` [Example 2, 1-{3-[4-(piperidin-4-yl-oxy)-phenoxy]-propyl}-piperidine dihydrochloride salt], the pKi in data set [1] was 7.30 to 8.00.
